Values of other authors, collected in US7820851B2, “Isotopically labeled polyfluorinated compound useful as an imaging tracer” (PerkinElmer Health Sciences, Inc., priority 2006, dated 2010).
Where two headings read alike, the source gives them in different places.

Key:
[1] = reported value; context: PFOA levels in American residents

SMILES: O=C(O)C(F)(F)C(F)(F)C(F)(F)C(F)(F)C(F)(F)C(F)(F)C(F)(F)F [PFOA, Perfluorooctanoic acid]
- elimination half-life [1]: 4 years
- primary tissues of distribution of PFOA-derived carbon-14 (female rats): liver, plasma, and kidney
- elimination of PFOA-derived radioactivity in the urine (female rats, carbon-14 labeled PFOA): rapidly
- primary tissues of distribution of PFOA-derived carbon-14 (male rats): liver and plasma
- administered carbon-14 eliminated in the urine (male rats, carbon-14 labeled PFOA, in the same period): 6%
